Measured values taken from US10132029B2, “Method for reducing adhesion of microorganisms to fabrics” (priority 2013, dated 2018).

System: S. aureus DSMZ 20231
Experiment: Syto9 microtiter plate assay: adhesion of bacteria to coated polyester fabric samples
Format: cell-based, Staphylococcus aureus
Conditions: for Reduction in adhered bacteria [%]: S. aureus, polyester; for Reduction in adhered bacteria [%] S. aureus: polyester fabric, application concentration 0.1 wt %, commercial product applied directly by padding, relative to uncoated fabric
Procedure: Circular fabric samples with a diameter of 0.6 cm were punched from coated and uncoated cotton and polyester fabrics. The fabric samples were fixed to a microtiter plate. The fabric samples were washed with acetone and sterilized with UV light for 60 minutes.
The strains were coated fresh from glycerol bacterial cultures onto tryptic soy agar (TSA). Incubation took place overnight at 33° C. The nutrient medium prepared was a tryptic soy broth (TSB), with 30% of the amount recommended by the manufacturer, supplemented with 0.25% of glucose. […] The nutrient medium was inoculated with the bacterial cultures and after inoculation was cultivated overnight at 37° C. and 160 rpm.
The resulting overnight cultures were centrifuged at 8500 g for 15 minutes and washed with 50 ml of isotonic saline solution (0.9 wt %). Bacterial suspensions in isotonic saline solutions were prepared. The optical density of the various bacterial suspensions was determined at 595 nm and adjusted to a level of about 1.2.
50 μl of the final microorganism suspension in isotonic saline solution (0.9 wt %) prepared as described under 2.2 were added to the coated and uncoated fabric samples fixed on the microtiter plate (see 2.1). The microtiter plates were closed and sealed off with Parafilm. The microtiter plates were placed in an antievaporation box and incubated at 33° C. for 2 h and at 40 rpm. The expected colony-forming unit count (CFU) of the inoculum at the start was 10^6-10^7 CFU/ml.
After the biofilm had formed, the planctonic cells were removed and used as a sample for determining the optical density at 595 nm. For this purpose, the samples were made up to a volume of 150 μl, and 100 μl were withdrawn for the optical density determination in a photometer. The optical density of the corresponding control solution with sterile isotonic saline solution was subtracted from the optical densities found. Through the determination of the planctonic cells after the formation of biofilm, the amount of bacteria available for adhesion was monitored.
The fabric samples and the resulting biofilm were washed three times with 200 to 300 μl of isotonic saline solution.
The fabric samples obtained under 2.4 (after formation of biofilm) were placed together with 100 μl of isotonic saline solution into wells of a 96-well microtiter plate.
Investigations into the removal of the adhered microorganisms from the fabric surfaces were carried out with vortexing, ultrasound, with enzymatic treatment, or with combinations thereof. Treatment in the vortex amounted to 5 minutes and was performed horizontally. The ultrasound treatment was carried out in an ultrasound bath for 5 minutes. For the enzymatic removal, the fabric samples were treated with enzymes, such as trypsin or a mixture of different enzymes, for example, during incubation at 37° C. for 1 hour.
Following removal of the adhered bacteria, the fabric samples were removed from the microtiter plates.
The number of removed bacteria in the resulting suspension was determined by staining with Syto9 and fluorescence measurement (fluorescence filter with excitation at 485/20 nm and emission at 528/20 nm) or by staining with BacTiterGlo and bioluminescence measurement. Furthermore, it is possible to determine the number of adhered and removed microorganisms by means of protein assay (e.g., BCA assay, Bradford Assay) or optical density proliferation assay.
The relative variables (e.g., fluorescence units (RFU)) concerning the coated and uncoated fabrics were compared, allowing the reduction in adhered bacteria in % to be determined in accordance with the following formula: Reduction in adhered bacteria[%]=[(RFUuc−RFUuc)/RFUuc]*100 where • RFUuc=relative fluorescence units of the removed bacteria of the uncoated substrate • RFUc=relative fluorescence units of the removed bacteria of the coated substrate […]

[1] = coating concentration 0.001 %, wash pretreatment (A) unwashed
[2] = coating concentration 0.001 %, wash pretreatment (B) washed twice at 30° C. only with water
[3] = coating concentration 0.001 %, wash pretreatment (C) washed once at 30° C. EN ISO 6330 method 8A with ECE B detergent
[4] = coating concentration 0.01 %, wash pretreatment (A) unwashed
[5] = coating concentration 0.01 %, wash pretreatment (B) washed twice at 30° C. only with water
[6] = coating concentration 0.01 %, wash pretreatment (C) washed once at 30° C. EN ISO 6330 method 8A with ECE B detergent
[7] = coating concentration 0.1 %, wash pretreatment (A) unwashed
[8] = coating concentration 0.1 %, wash pretreatment (B) washed twice at 30° C. only with water
[9] = coating concentration 0.1 %, wash pretreatment (C) washed once at 30° C. EN ISO 6330 method 8A with ECE B detergent

Molecule | Reduction in adhered bacteria [%] [1] [%] | Reduction in adhered bacteria [%] [2] [%] | Reduction in adhered bacteria [%] [3] [%] | Reduction in adhered bacteria [%] [4] [%] | Reduction in adhered bacteria [%] [5] [%] | Reduction in adhered bacteria [%] [6] [%] | Reduction in adhered bacteria [%] [7] [%] | Reduction in adhered bacteria [%] [8] [%] | Reduction in adhered bacteria [%] [9] [%] | Reduction in adhered bacteria [%] S. aureus [%]
CO[Si](CCCN(CCN(CC(=O)[O-])CC(=O)[O-])CC(=O)[O-])(OC)OC.[Na+].[Na+].[Na+] [S5, N-(trimethoxysilylpropyl)ethylenediaminetriacetyl acid, trisodium salt] | 69 | 59 | 75 | 44 | 22 | 53 | 72 | 68 | 38 | 46
N-(triethoxysilylpropyl)-O-polyethylene oxide-urethane, (4-6 EO units) [S3] | 57 | 54 | 69 | 63 | 34 | 58 | 47 | 46 | 61 | 55
